Here are results for three compounds from ChEMBL document CHEMBL1122857, “A uniquely potent renin inhibitor and its unanticipated plasma binding component” (J Med Chem, 1985).

In assay [1] the target is T1, Renin (Homo sapiens, UniProt P00797).
T1 sequence (P00797 whole entry): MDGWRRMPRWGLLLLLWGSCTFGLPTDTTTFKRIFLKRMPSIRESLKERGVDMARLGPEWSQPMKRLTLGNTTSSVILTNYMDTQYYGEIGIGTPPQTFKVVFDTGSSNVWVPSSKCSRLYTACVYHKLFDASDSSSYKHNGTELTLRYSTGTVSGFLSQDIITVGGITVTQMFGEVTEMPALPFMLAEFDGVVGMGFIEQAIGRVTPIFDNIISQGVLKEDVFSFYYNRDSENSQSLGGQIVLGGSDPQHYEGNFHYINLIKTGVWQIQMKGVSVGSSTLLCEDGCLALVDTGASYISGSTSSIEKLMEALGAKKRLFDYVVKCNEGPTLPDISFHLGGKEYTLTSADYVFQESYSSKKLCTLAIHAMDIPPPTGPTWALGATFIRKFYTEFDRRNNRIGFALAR
In words: Compound was tested for inhibition of human kidney renin.

A further assay has as its target Renin (Sus scrofa). Kind of assay: Compound was tested for inhibition of hog kidney renin. The note with it: read-out: I50.
In assay [2] the target is T1, Renin. Kind of assay: (§1) Compound was tested for inhibition of human plasma renin. The class given is cell-free. The note with it: read-out: I50.
In another assay the target is T2, Renin (Homo sapiens) (UniProt P00797).
T2 sequence (whole entry): T1 sequence (P00797 whole entry)
Described as §1. The following applies: concentration not given here. Format: cell-free.

Structures are written as SMILES. Non-standard residues stand in square brackets, D forms with d. Residues, ends and D or L forms follow the SMILES beside them. *: point of attachment. Sta = CC(C)C[C@H](N)[C@@H](O)CC(=O)O; X1 = c1ccc(CN2CCC(N*)CC2)cc1; Boc = CC(C)(C)OC(=O)*

Turning to `CC(C)C[C@H](NC(=O)C[C@H](O)[C@H](CC(C)C)NC(=O)[C@H](Cc1ccccc1)NC(=O)[C@H](Cc1ccccc1)NC(=O)OC(C)(C)C)C(=O)N[C@@H](Cc1ccccc1)C(N)=O` (Boc-FF[Sta]LF-NH2), the Ki – broadly, a measure of affinity in units of concentration, obtained from inhibition or displacement – on Renin [1] is 4.8 nM. For the same compound, on Renin (Sus scrofa), the IC50 came out at 88 nM.

Regarding `CC(C)C[C@@H](CNCc1ccccc1)NC(=O)C[C@H](O)[C@H](CC(C)C)NC(=O)[C@H](Cc1ccccc1)NC(=O)[C@H](Cc1ccccc1)NC(=O)OC(C)(C)C`, the IC50 at Renin [2] was 1000 nM; on Renin (Sus scrofa) it was 858 nM. At Renin [1], the affinity, expressed as Ki, was 0.026 nM. In addition, the inhibition (as a rule, the share of the control response that was lost under treatment) against Renin (Homo sapiens) came out at 37%.

For `CC(C)C[C@H](NC(=O)C[C@H](O)[C@H](CC(C)C)NC(=O)[C@H](Cc1c[nH]cn1)NC(=O)[C@H](Cc1ccccc1)NC(=O)OC(C)(C)C)C(=O)NC1CCN(Cc2ccccc2)CC1` (Boc-FH[Sta]L-X1), the results for the IC50 on Renin [2] and at Renin (Sus scrofa) were 25 nM and 269 nM, respectively. This compound yielded a Ki on Renin [1] of 0.064 nM.
